How the values were obtained:
[1] = Highest frequency of moderate liver toxicity observed during clinical trials, expressed as a percentage. [column '% BIOL' in source]; settings: human
[2] = Highest frequency of acute liver toxicity observed during clinical trials, expressed as a percentage. [column '% AIGUE' in source]; settings: human
[3] = Comments (NB not yet translated). [column 'COMMENTAIRES' in source]; settings: human
[4] = Times to onset, minimal and maximal, observed in the indexed observations. [column 'DELAI' in source]; settings: human
[5] = Proposed mechanism(s) of liver damage. [column 'MEC' in source]; settings: human
[6] = human, serum
[7] = human, serum; remark: listed apart in the source
[8] = human
[9] = human; remark: listed apart in the source
[10] = human; remark: listed apart in the source
[11] = human, serum, 4383 h
[12] = human; remark: listed apart in the source
[13] = human; remark: listed apart in the source
[14] = human; remark: listed apart in the source
[15] = human; remark: listed apart in the source
[16] = human; remark: listed apart in the source
[17] = human; remark: listed apart in the source
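Throughout, for Hepatotoxicity (association with vascular disease): count of indexed literature references reporting vascular liver injury in humans, e.g. peliosis hepatitis, hepatic veno-occlusive disease or Budd-Chiari syndrome.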
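Throughout, for Hepatotoxicity (benign tumour): value is a count of indexed literature references citing a benign tumour confirmed by histopathology.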
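Throughout, for Hepatotoxicity (choleostasis): human cholestatic liver injury, shown by histopathology or by peak ALT or AST elevation over alkaline phosphatase ratio below 2, value counts indexed literature reports.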
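Throughout, for Hepatotoxicity (chronic liver disease): chronic liver injury confirmed by histopathology or persistently raised serum aminotransferase activity beyond 6 months, value given as the count of indexed literature references.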
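Throughout, for Hepatotoxicity (cirrhosis): value is a count of indexed literature references reporting cirrhosis confirmed by histopathology.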
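Throughout, for Hepatotoxicity (cytolytic): human cytolytic liver injury, shown by histopathology or by a ratio above 5 of peak ALT or AST elevation to alkaline phosphatase elevation, value counts indexed references.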
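Throughout, for Hepatotoxicity (granulomatous hepatitis): value is a count of indexed literature references reporting granulomatous liver disease confirmed by histopathology.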
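Throughout, for Hepatotoxicity (malignant tumour): malignant tumour confirmed by histopathology, value gives the count of indexed literature references reporting it.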
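Throughout, for Hepatotoxicity (severe hepatitis): human clinical data: severe hepatitis, meaning potentially life-threatening liver failure or clinically observed cases, the value counts how many indexed literature references report it.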
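Throughout, for Hepatotoxicity (steatosis): steatosis confirmed by histopathology, value is the count of indexed references.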

Molecule	Hepatotoxicity (moderate) [1] [%]	Hepatotoxicity (acute) [2] [%]	Hepatotoxicity (comment) [3]	Hepatotoxicity (time to onset) [4]	Hepatotoxicity (mechanism) [5]	Hepatotoxicity (moderate) [6]	Hepatotoxicity (acute) [7]	Hepatotoxicity (cytolytic) [8]	Hepatotoxicity (choleostasis) [9]	Hepatotoxicity (severe hepatitis) [10]	Hepatotoxicity (chronic liver disease) [11]	Hepatotoxicity (cirrhosis) [12]	Hepatotoxicity (granulomatous hepatitis) [13]	Hepatotoxicity (association with vascular disease) [14]	Hepatotoxicity (steatosis) [15]	Hepatotoxicity (malignant tumour) [16]	Hepatotoxicity (benign tumour) [17]	also measured
CO[C@@]1(NC(=O)Cc2cccs2)C(=O)N2C(C(=O)O)=C(COC(N)=O)CS[C@@H]21 [CEFOXITIN]	25.8	0	CHOLESTASE_PROLONGEE	17 days	Allergic	18	1	0	1	0	0	0	0	0	0	0	0	–
GOLD	40	0.8	AC_ANTI-ADN/-ML/-N HLA-DR3 PERICHOLANGITE	1 week - 5 years	Allergic, Dose-dependant	22	52	7	44	5	1	0	1	0	0	0	0	–
O=C(O)c1cc(-c2ccc(F)cc2F)ccc1O [DIFLUNISAL]	–	–	AC_ANTI-ML	1 week - 1 month	–	2	5	–	–	–	0	0	–	0	0	0	0	Hepatotoxicity (moderate) ([1]; Liver): 5%; Hepatotoxicity (acute) ([2]; Liver): 0%; Hepatotoxicity (mechanism) ([5]; Liver): Allergic; Hepatotoxicity (cytolytic) ([8]; Liver): 2; Hepatotoxicity (choleostasis) ([9]; Liver): 4; Hepatotoxicity (severe hepatitis) ([10]; Liver): 0; Hepatotoxicity (granulomatous hepatitis) ([13]; Liver): 1
CCc1nc(N)nc(N)c1-c1ccc(Cl)cc1 [PYRIMETHAMINE]	28.6	0	I/LORAZEPAM	4 hours - 4 months	Dose-dependant	8	1	0	1	0	0	0	1	0	1	0	0	–
C[C@H]1c2cccc(O)c2C(=O)C2=C(O)[C@]3(O)C(=O)C(C(N)=O)=C(O)[C@@H](N(C)C)[C@@H]3[C@@H](O)[C@@H]21.O [DOXYCYCLINE]	10	0	CHOLESTASE_PROLONGEE DUCTOPENIE	1 day - 12 years	Allergic	8	5	1	3	1	1	0	0	0	2	0	0	–
CCCN(CCC)C(=O)Cc1c(-c2ccc(Cl)cc2)nc2ccc(Cl)cn12 [ALPIDEM]	0	0	AC_ANTI-N	1 month - 8 months	Allergic	0	5	4	0	5	0	0	0	0	0	0	0	–
CC(C)NCC(O)COc1cccc2ccccc12 (centres undefined) [PROPRANOLOL]	10	0	CHOLANGIOLITE ENCEPHALOPATHIE	1 month - 9 months	Allergic	5	5	4	3	0	0	0	0	0	0	0	0	–
Cc1cnc(C(=O)NCCc2ccc(S(=O)(=O)NC(=O)NC3CCCCC3)cc2)cn1 [GLIPIZIDE]	–	–	AC_ANTI-ML	2 days - 5 months	Allergic	1	–	3	0	–	0	0	0	0	0	0	0	Hepatotoxicity (moderate) ([1]; Liver): 0%; Hepatotoxicity (severe hepatitis) ([10]; Liver): 2
O=C(Nc1ccc(Cl)cc1)NS(=O)(=O)c1ccc2c(c1)CCC2 [SULOFENUR]	80	18.8	CHOLANGITE	–	Dose-dependant	9	6	4	3	0	0	0	0	0	0	0	0	–
CN1CCN(CCCN2c3ccccc3Sc3ccc(Cl)cc32)CC1 [PROCHLORPERAZINE]	0	0	I/IPRONIAZIDE CHOLESTASE_PROLONGEE DUCTOPENIE	1 week - 4 months	–	0	9	3	6	3	3	0	0	0	0	0	0	–
Nc1nc(F)nc2c1ncn2[C@@H]1O[C@H](CO)[C@@H](O)[C@@H]1O [FLUDARABINE]	42.9	0	REACTIVATION_HVB	8 months	–	5	2	1	0	1	0	0	0	0	0	0	0	–
C[C@]12Cc3c[nH]nc3C[C@@H]1CC[C@@H]1[C@@H]2CC[C@@]2(C)[C@H]1CC[C@]2(C)O [STANOZOLOL]	26.1	0	ANGIOSARCOME HNF	1 month - 20 years	–	6	6	2	4	1	0	0	0	0	0	2	3	–
CCc1ccc(CCOc2ccc(CC3SC(=O)NC3=O)cc2)nc1 (centres undefined) [PIOGLITAZONE]	0.4	0	CHOLESTASE_PROLONGEE PERICHOLANGIOLITE CHOLANGIOLITE	23 days - 7 months	–	3	5	3	3	1	0	0	0	0	0	0	0	–

Reference: ChEMBL document CHEMBL3137667, “[Drug-induced liver injury; fourteenth updated edition of the bibliographic database of liver injuries and related drugs]” (Gastroenterol Clin Biol, 2004)
